Three compounds from US20200297621A1, “Topical Compositions for Neuropathic Pain” (GOOD PHARMACEUTICAL DEVELOPMENT COMPANY, LLC, priority 2016, published 2020) can be followed below.

A short description of this data set: Stability testing of the topical gabapentin/ketamine composition. The format is physicochemical. Details: Assay: unit not given beside the values. The conditions noted are these: for Assay (avg): avg of the two determinations; for Assay: single determinations.

Values joined by “and” are separate entries in the source; they are usually repeats but may differ in a detail not shown here. Equal values may be shown once.

With `CNC1(c2ccccc2Cl)CCCCC1=O.Cl` (racemic) [Ketamine HCl, (±) 2-(o-chlorophenyl)-2-(methylamino)-cyclohexanone], the “Assay (avg)” value reads like this: (2 wk, 25/60) 105.8; (2 wk, 40/75) 105.2; (t = 0) 106.3. Also, the Assay runs as follows: (2 wk, 25/60) 105.9 and 105.7; (2 wk, 40/75) 105.2; (t = 0) 108.8 and 103.9.

On to `NCC1(CC(=O)O)CCCCC1` [Gabapentin, 1-(aminomethyl)cyclohexane acetic acid], for which the “Assay (avg)” value reads like this: (2 wk, 25/60) 106.6; (2 wk, 40/75) 105.8; (t = 0) 111.3. The Assay (2 wk, 25/60, acetic acid) was 105.4 and 107.8; the Assay (2 wk, 40/75, acetic acid) was 106.1 and 105.5; the Assay (t = 0, acetic acid) was 111.9 and 110.7.

As for `COC(=O)c1ccc(O)cc1` [Methylparaben], the “Assay (avg)” value was 106.1 (2 wk, 25/60); 108.1 (2 wk, 40/75); 112.0 (t = 0). For the same compound, the Assay runs as follows: (2 wk, 25/60) 108.2 and 104.1; (2 wk, 40/75) 109.6 and 106.7; (t = 0) 111.1 and 112.9.
